Source: paper PMC6739813, “Structures of the Neisseria meningitides methionine‐binding protein MetQ in substrate‐free form and bound to L‐ and D‐methionine isomers” (Protein Science : A Publication of the Protein Society, 2019)

What was measured:
[1] = target: T1, MetQ (methionine-binding protein) (Neisseria meningitidis, UniProt Q9JPG4); assay: ITC; crystal structure at […] Å
T1 construct: gene gna1946

[2] = target: T2, MetQ (methionine-binding protein) (Neisseria meningitidis, UniProt Q9JPG4, N238A); assay: ITC
T2 construct: gene gna1946
T2 sequence (Q9JPG4 43-287 N238A): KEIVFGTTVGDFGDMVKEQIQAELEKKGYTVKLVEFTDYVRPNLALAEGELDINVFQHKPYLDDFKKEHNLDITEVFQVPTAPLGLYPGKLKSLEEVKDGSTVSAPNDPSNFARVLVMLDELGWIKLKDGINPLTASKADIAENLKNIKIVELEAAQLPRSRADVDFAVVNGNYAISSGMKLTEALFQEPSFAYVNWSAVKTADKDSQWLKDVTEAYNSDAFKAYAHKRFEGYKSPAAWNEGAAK

[3] = target: T1, MetQ (methionine-binding protein); assay: ITC (displacement titration with D-methionine); crystal structure at […] Å

| SMILES | Kd [1] [µM] | Kd [2] [µM] | Kd [3] [µM] |
| --- | --- | --- | --- |
| CSCC[C@@H](N)C(=O)O [D-methionine] | 3.5 | 240 |  |
| CSCC[C@H](N)C(=O)O [L-methionine] |  | 78 | 0.0002 |
